The numbers were not newly measured in patent US20110086399A1, “RECOVERY OF STILBENOIDS” (FLUXOME SCIENCES A/S, priority 2008, published 2011), which cites them from elsewhere.

One may read the aqueous solubility as the dissolved amount per volume that the medium holds.

Bounds are passed on as bounds.

The conditions of the series: stated for comparison with the concentrations in the cell broth.

For `Oc1cc(O)cc(/C=C/c2ccccc2)c1` [pinosylvin], the aqueous solubility was less than 30 µg/mL.
